This note sets out measurements from patent US12680078B2, “Differentiation of pluripotent stem cells and cardiac progenitor cells into striated cardiomyocyte fibers using laminins LN-511, LN-521 and LN-221” (National University of Singapore, priority 2013, dated 2026).

pEC50: −log10 of the molar value. Where a name gives a salt, the structure may show the parent alone. Read-outs that look alike come from different tables or passages of the source.

Experiment [1] relates to cardiomyocytes. The experiment is described as follows: Multi-electrode assay (MEA) of cellular responses to adrenergic stimulation. Format: cell-based, human. The note with it: upon exposure. As to the method: To further characterize the functionality of the cardiomyocytes, single cell patch clamp and multi-electrode assay (MEA) were utilized to measure their action potential. 13.60% mimicked the nodal subtype, 22.20% mimicked the atrial subtype, and 64.20% mimicked the heart ventricle subtype (see FIG. 8(C)).
(§1) Cellular responses to adrenergic stimulation were also tested with MEA.

Experiment [2] has as its system cardiomyocytes. The experiment is described as follows: Cell viability assay (ATP content) on hESC-derived cardiomyocytes. Format: cell-based. The note with it: Homo sapiens, Cardiomyocyte, read-out: EC50 (cell viability, ATP content). As to the method: FIG. 12G is a graph showing ATP content (relative light units×1000) versus log concentration of valinomycin. The y-axis runs from 0 to 5 in increments of 1. The x-axis runs from −7 to −3 in increments of 1.
FIG. 12H is a graph showing ATP content (relative light units×1000) versus log concentration of emetine dihydrochloride. The y-axis runs from 0 to 6 in increments of 2. The x-axis runs from −8 to −3 in increments of 1.
as §1

For `CC(C)NCC(O)c1ccc(NS(C)(=O)=O)cc1` (stereo not shown) [Sotalol], the “corrected field potential duration (cFPD)” value in the experiment on cardiomyocytes [1] is on record as “shortened corrected field potential duration (cFPD)”.
As for `CC(C)[C@@H]1NC(=O)[C@H](C)OC(=O)[C@@H](C(C)C)NC(=O)[C@@H](C(C)C)OC(=O)[C@H](C(C)C)NC(=O)[C@H](C)OC(=O)[C@@H](C(C)C)NC(=O)[C@@H](C(C)C)OC(=O)[C@H](C(C)C)NC(=O)[C@H](C)OC(=O)[C@@H](C(C)C)NC(=O)[C@@H](C(C)C)OC1=O` [valinomycin], the pEC50 with cardiomyocytes [2] was 4.88.
In the case of `CC[C@H]1CN2CCc3cc(OC)c(OC)cc3[C@@H]2C[C@@H]1C[C@H]1NCCc2cc(OC)c(OC)cc21` [emetine dihydrochloride], in the experiment with cardiomyocytes [2] (hESC-derived cardiomyocytes, FIG. 12G/12H), the pEC50 was 5.22.
For the molecule `CC(C)NCC(O)c1ccc(O)c(O)c1` (stereo not shown) [isoproterenol], the heart rate entry in the experiment on cardiomyocytes [1] is given as “increased heart rate”.

Usually pEC50 stands for the EC50 on a negative log10 scale, so that one unit is a factor of ten.
